Literature values, collected in patent publication US4650664A (Dr. Karl Thomae GmbH, priority 1982, dated 1987).

Details: human

OCCN(CCO)c1nc(N2CCCCC2)c2nc(N(CCO)CCO)ncc2n1 [Mopidamol, 2,6-bis-(diethanolamino)-4-piperidinopyrimido[5,4-d]pyrimidine]
Excretion in the urine: only excreted in the urine to a very small extent
